According to patent publication US4068003A, “Method of medical treatment of myasthenia” (priority 1976, dated 1978):

What was measured:
[1] = Clinical test in myasthenia gravis, case [II] (person); assay type: in vivo, human
Description: (§1) The effects of the present invention for the treatment of myasthenia gravis will be shown with reference to the results of clinical tests.
Thereafter, they took 20-25 mg/day of Ambenonium perorally intermittently.
At the first medical examination, eye symptoms such as eyelid drooping and double vision and evervation in limbs were remarkable. As for the walking ability, they barely walked 100 m even when the effect of Ambenonium was exerted.
By peroral administration of 25 mg/day of Ambenonium and 30 mg/day of Coenzyme Q10, muscular contraction was caused 2-3 days after the start of the treatment. Dosage of Ambenonium was reduced to 20 mg/day. After the treatment was continued according to this recipe for one week, the heavy feeling of the body, double vision and the eye symptoms were relieved. Continuous 400 m walking was made possible.

[2] = Clinical test in myasthenia gravis, case [I] (person); assay type: in vivo, human
Description: as §1
They were attacked with myasthenia. […] Ambenonium is a cholinesterase inhibitor and available, for example, under the trademark Myterase. One year before the first medical examination in this hospital, they took 20 mg/day of Ambenonium.
At the first medical examination, drooping of the left eyelid, disorder in the movement of the left eyeball and fatiguing of the limbs were observed. […] The administration according to the recipe was continued for 30 days and, thereafter, dosage of Ambenonium was reduced to 10 mg/day (morning and evening: 5 mg each). This treatment was continued for a further period of 30 days.

[3] = Acute toxicity test, single high dose, mice; assay type: in vivo, mice of ICR-JCL strain; settings: for Maximum dose (no case of deaths): single dose, 7 days observation
From the text: (§2) In order to evaluate the acute toxicity of a single high dose administration of Coenzyme Q10, male and female rats of Wistar strain and male and female mice of ICR-JCL strain were used, and oral, intramuscular, subcutaneous, and intravenous administrations were studied. For the oral administration of Coenzyme Q10, gum Arabic suspension was used. For the intramuscular, subcutaneous and intravenous administrations, Coenzyme Q10 was used as a solution containing a nonionic surfactant, Nikkol HCO-60. Nikkol HCO-60 is a trade mark of a non-ionic surfactant comprised of hydrogenated castor oil/polyoxyethylene-60 mole ether available from Nikko Chemicals, Co. Ltd., Japan.
(§3) Observation was carried out for 7 days by using six males and six females for each dose group.

[4] = Overall result of acute, subacute, chronic toxicity and teratogenesis tests; assay type: in vivo
From the text: as §2
(§4) Coenzyme Q10 was compulsorily and orally administered every day for 5 weeks to each group consisting of 10 male rats and 10 female rats of Wistar strain. The dose was 40, 200, and 1000 mg/Kg/day, respectively. Coenzyme Q10 was used in the form of gum Arabic suspension, while the solution containing gum Arabic alone was used as the control group. Collection of blood and urine samples and autopsies were carried out 5 weeks after the initiation of administration.
Coenzyme Q10 was compulsorily and orally administered every day for 23 days to each group consisting of 6 male rabbits and 5 female rabbits. The dose was 6, 60 and 600 mg/Kg/day, respectively. […]

[5] = Clinical test in myasthenia gravis, case [III] (person); assay type: in vivo, human
From the text: as §1
The patient was attacked by myasthenia. At the first medical examination, only eyelid drooping (eye fissure: left 5 mm, right 2 mm) was observed.

[6] = Chronic oral toxicity test (26 weeks); assay type: in vivo, rats of Wistar strain
Description: Coenzyme Q10 was compulsorily and orally administered to each group consisting of 10 male rats and 10 female rats of Wistar strain for consecutive 26 weeks in a ratio of 6 days a week. The dose was 6, 60 and 600 mg/Kg/day, respectively. Coenzyme Q10 was used in the form of gum Arabic suspension, whereas the solution containing gum Arabic alone is used as the control group. Collection of blood and urine samples and autopsies were carried out 26 weeks after the administration.

[7] = Subacute oral toxicity test in rabbits (23 days); assay type: in vivo
Description: Coenzyme Q10 was compulsorily and orally administered every day for 23 days to each group consisting of 6 male rabbits and 5 female rabbits. The dose was 6, 60 and 600 mg/Kg/day, respectively. Coenzyme Q10 was used in the form of gum Arabic suspension, whereas the solution containing gum Arabic alone was used as the control group. On the 24th day, blood samples were collected from all the animals, and 3 males and 2 females from each group were then selectively autopsied.

[8] = Acute toxicity test, single high dose, rats; assay type: in vivo, rats of Wistar strain; settings: for Maximum dose (no case of deaths): single dose, 7 days observation
From the text: as §2, §3

Teratogenesis test, rats = assay type: in vivo; settings: rats, 6, 60, 600 mg/Kg/day
Teratogenesis test, mice = assay type: in vivo; settings: mice, 6, 60, 600 mg/Kg/day
[9] = Subacute oral toxicity test in rats (5 weeks); assay type: in vivo, rats of Wistar strain
Description: as §4

[10] = all routes, maximum doses of Table 1
[11] = any administration group, 7 days
[12] = at the maximum dose in each administration route
[13] = intramuscular, Nikkol HCO-60 solution
[14] = intravenous, Nikkol HCO-60 solution
[15] = subcutaneous, Nikkol HCO-60 solution
[16] = Coenzyme Q10 30 mg/day, Ambenonium reduced to 20 mg/day, one week
[17] = Coenzyme Q10 30 mg/day peroral in combination with Distigmine Bromide
[18] = group not stated, spontaneous pneumonia and aspiration pneumonia due to erroneous administration
[19] = rats, 6, 60, 600 mg/Kg/day oral, 26 weeks, vs control group
[20] = rabbits, 6, 60, 600 mg/Kg/day oral, 23 days
[21] = rats, 40, 200, 1000 mg/Kg/day oral, 5 weeks

## CC[N+](CC)(CCNC(=O)C(=O)NCC[N+](CC)(CC)Cc1ccccc1Cl)Cc1ccccc1Cl [Ambenonium]
[1]; at first medical examination, under effect of Ambenonium, before Coenzyme Q10, barely walked
  walking ability: ~100 m
[2]; Ambenonium alone, 20 mg/day peroral, 4 months
  improvement in the symptoms: no significant improvement in the symptoms

## COC1=C(OC)C(=O)C(C/C=C(\C)CC/C=C(\C)CC/C=C(\C)CC/C=C(\C)CC/C=C(\C)CC/C=C(\C)CC/C=C(\C)CC/C=C(\C)CC/C=C(\C)CCC=C(C)C)=C(C)C1=O [Coenzyme Q10]
[3]
  toxicity (acute): extremely low
[3]; [10]
  LD50: far higher than the maximum dose mentioned above
[3]; [11]
  general condition, body weight, food intake and autopsy findings: no change
[3]; [12]
  deaths: no case of deaths
[3]; [13]
  Maximum dose (no case of deaths): 500 mg/kg
[3]; [14]
  Maximum dose (no case of deaths): 250 mg/kg
[3]; oral, gum Arabic suspension
  Maximum dose (no case of deaths): 4000 mg/kg
[3]; [15]
  Maximum dose (no case of deaths): 500 mg/kg
[1]; Coenzyme Q10 30 mg/day with Ambenonium 25 mg/day, peroral
  time to muscular contraction after start of treatment: 2 to 3 days
[1]; [16]
  continuous walking made possible: 400 m
  heavy feeling of the body, double vision and eye symptoms: relieved
[2]; 30 days combination, then Ambenonium reduced to 10 mg/day for further 30 days
  walking and work ability: long distance walking and light work became possible
[2]; Ambenonium reduced to 5 mg/day
  symptoms after further reduction of Ambenonium: no worsening of the symptoms was caused and the patient is now getting better
[2]; Coenzyme Q10 30 mg/day peroral in combination with Ambenonium, at the start
  improvement in symptoms (walking, breathing): an improvement in walking and relief in a feeling of difficulty in breathing
[4]
  overall safety: very safe drug, without side-effects
[5]; [17]
  ascending and descending stairs: could ascend and descend stairs easily
  need for the dropping lotion: became unnecessary
  opening of the eyelids: improve and to stabilize the opening of the eyelids
[5]; Coenzyme Q10 30 mg/day peroral in combination with Distigmine Bromide, difficult before
  walking straight looking ahead: could walk easily
[6]; [18]
  deaths, females: 3 females
  deaths, males: 11 males
[6]; hemoxylin.Eosine staining and liver fat staining, 26 weeks, vs control group
  macroscopical and histological observation: abnormalities were not recognized
[6]; [19]
  body weight: increased the same as that of the control group
  general condition: no difference
[6]; rats, 26 weeks
  toxicity (chronic oral): no toxicity was observed
  weights of organs: no significant increase and decrease
[6]; rats, 26 weeks, vs control group
  biochemical tests of blood and urine: No significant changes
[6]; rats, 26 weeks, some increase and decrease, not dose-related
  leukocytal percentages (hematological findings): within the range of physiological fluctuations
[7]; 7th, 14th and 24th days
  electron-microscopic observation of liver (minute structure): not recognized abnormal findings
[7]; hematoxylin.Eosine staining and liver fat staining, 23 days
  macroscopical and histological observation: abnormalities were not recognized
[7]; [20]
  hematological test and biochemical test of blood: Abnormal findings were not obtained
  weight of each organ: no effect
[7]; rabbits, 6, 60, 600 mg/Kg/day oral, 23 days, vs control group
  general condition and increase of body weight: no difference
[7]; rabbits, 23 days
  toxicity (subacute oral): not recognized
[8]
  toxicity (acute): extremely low
[8]; [10]
  LD50: far higher than the maximum dose mentioned above
[8]; [11]
  general condition, body weight, food intake and autopsy findings: no change
[8]; [12]
  deaths: no case of deaths
[8]; [13]
  Maximum dose (no case of deaths): 500 mg/kg
[8]; [14]
  Maximum dose (no case of deaths): 250 mg/kg
[8]; oral, gum Arabic suspension
  Maximum dose (no case of deaths): 4000 mg/kg
[8]; [15]
  Maximum dose (no case of deaths): 500 mg/kg
Teratogenesis test, rats
  adverse effects in mothers, fetuses, and newborns: no adverse effects
Teratogenesis test, mice
  adverse effects in mothers, fetuses, and newborns: no adverse effects
[9]; group not stated, spontaneous pneumonia and aspiration pneumonia due to error of administration
  dead animals during the experiment: 4 animals
[9]; rats, 5 weeks
  toxicity (subacute oral): not recognized
[9]; [21]
  hematological test and biochemical test of blood and urine: No significant change
  weight of each organ: no significant change
[9]; rats, 40, 200, 1000 mg/Kg/day oral, 5 weeks, vs control group
  general condition and body weight: no difference

## CN(CCCCCCN(C)C(=O)Oc1ccc[n+](C)c1)C(=O)Oc1ccc[n+](C)c1 [Distigmine Bromide]
[5]; Distigmine Bromide 10 mg/day peroral plus 0.5 % eye drops, 6 months, before: left 5 mm
  eye fissure, left: 6 mm
[5]; Distigmine Bromide 10 mg/day peroral plus 0.5 % eye drops, 6 months, before: right 2 mm
  eye fissure, right: 4 mm
[5]; Distigmine Bromide peroral plus eye drops, 6 months
  symptoms (eyelid drooping): improved a little
